Reference: ChEMBL document CHEMBL1909046, “DrugMatrix in vitro pharmacology data”

Columns and labels:
[1] = molecular target: Mitogen-activated protein kinase 1 (Homo sapiens, UniProt P28482); assay: DRUGMATRIX: Protein Serine/Threonine Kinase, ERK2 enzyme inhibition (substrate: Myelin Basic Protein); parameters: species or system Escherichia coli; conditions: Not Active = under 50% inhibition at 10 µM
[2] = DRUGMATRIX: Platelet-Derived Growth Factor (PDGF) radioligand binding (ligand: [125I] PDGF); format: cell-based; conditions: nih3t3; Not Active = under 50% inhibition at 10 µM
[3] = molecular target: T1, Cytochrome P450 1A2 (Homo sapiens, UniProt P05177); conditions: bti-tn-5b1-4; note: in other assays of this panel Not Active means under 50% inhibition at 10 µM
T1 sequence (P05177 whole entry): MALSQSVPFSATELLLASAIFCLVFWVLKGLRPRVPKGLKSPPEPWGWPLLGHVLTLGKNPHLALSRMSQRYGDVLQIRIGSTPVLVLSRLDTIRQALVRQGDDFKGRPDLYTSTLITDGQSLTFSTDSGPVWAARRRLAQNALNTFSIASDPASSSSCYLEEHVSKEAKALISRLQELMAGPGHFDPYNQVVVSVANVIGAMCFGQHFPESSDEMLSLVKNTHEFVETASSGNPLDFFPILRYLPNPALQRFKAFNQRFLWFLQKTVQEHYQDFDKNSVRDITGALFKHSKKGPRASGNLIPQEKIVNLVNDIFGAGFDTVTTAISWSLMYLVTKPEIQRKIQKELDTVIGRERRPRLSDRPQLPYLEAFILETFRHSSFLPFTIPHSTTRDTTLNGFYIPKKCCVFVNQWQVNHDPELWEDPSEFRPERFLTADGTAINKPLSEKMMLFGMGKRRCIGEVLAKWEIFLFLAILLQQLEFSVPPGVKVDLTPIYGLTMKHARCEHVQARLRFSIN

[4] = molecular target: T2, Endothelin-1 receptor (Homo sapiens, UniProt P25101); format: cell membranes, CHO-K1, Membrane; conditions: cho-k1; note: in other assays of this panel Not Active means under 50% inhibition at 10 µM
T2 sequence (P25101 whole entry): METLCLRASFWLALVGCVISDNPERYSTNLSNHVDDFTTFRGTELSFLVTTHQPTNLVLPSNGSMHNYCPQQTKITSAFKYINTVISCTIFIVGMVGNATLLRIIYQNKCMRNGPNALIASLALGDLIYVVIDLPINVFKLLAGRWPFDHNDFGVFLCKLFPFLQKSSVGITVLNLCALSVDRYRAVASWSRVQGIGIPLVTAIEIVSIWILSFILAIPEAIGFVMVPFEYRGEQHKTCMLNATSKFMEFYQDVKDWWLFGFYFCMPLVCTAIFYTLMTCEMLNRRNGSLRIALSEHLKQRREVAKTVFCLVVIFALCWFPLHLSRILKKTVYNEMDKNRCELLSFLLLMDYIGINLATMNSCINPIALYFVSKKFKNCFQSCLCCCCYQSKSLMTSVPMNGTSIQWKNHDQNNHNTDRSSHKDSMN

[5] = molecular target: Delta-type opioid receptor (Homo sapiens, UniProt P41143); format: cell membranes, HEK293, Membrane; conditions: hek293; note: in other assays of this panel Not Active means under 50% inhibition at 10 µM
[6] = molecular target: Cannabinoid receptor 1 (Homo sapiens, UniProt P21554); format: cell membranes, Membrane; conditions: chem-1; note: in other assays of this panel Not Active means under 50% inhibition at 10 µM
[7] = molecular target: Carbonic anhydrase 2 (Homo sapiens, UniProt P00918); assay: DRUGMATRIX: Carbonic Anhydrase II enzyme inhibition (substrate: 4-Nitrophenyl acetate (4-NPA)); format: tissue-based, Erythrocyte; conditions: erythrocyte; Not Active = under 50% inhibition at 10 µM
[8] = molecular target: T3, Estrogen receptor (Homo sapiens, UniProt P03372); conditions: sf9; note: in other assays of this panel Not Active means under 50% inhibition at 10 µM
T3 sequence (P03372 whole entry): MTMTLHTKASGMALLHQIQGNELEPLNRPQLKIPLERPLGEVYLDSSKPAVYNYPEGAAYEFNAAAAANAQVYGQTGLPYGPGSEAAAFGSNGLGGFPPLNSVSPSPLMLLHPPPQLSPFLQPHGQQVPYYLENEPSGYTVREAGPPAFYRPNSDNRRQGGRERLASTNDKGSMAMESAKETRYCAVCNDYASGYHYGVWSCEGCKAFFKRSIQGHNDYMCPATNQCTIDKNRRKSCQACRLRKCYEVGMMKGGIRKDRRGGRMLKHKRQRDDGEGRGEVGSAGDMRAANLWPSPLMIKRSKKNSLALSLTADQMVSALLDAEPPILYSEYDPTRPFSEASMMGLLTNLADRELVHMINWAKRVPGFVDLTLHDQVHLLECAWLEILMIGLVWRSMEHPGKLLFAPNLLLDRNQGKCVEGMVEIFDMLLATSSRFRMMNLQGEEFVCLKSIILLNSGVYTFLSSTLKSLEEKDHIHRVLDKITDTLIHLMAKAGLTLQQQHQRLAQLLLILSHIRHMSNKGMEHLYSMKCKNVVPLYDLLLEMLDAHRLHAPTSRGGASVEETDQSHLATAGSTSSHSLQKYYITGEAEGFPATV

[9] = molecular target: T4, 3-hydroxy-3-methylglutaryl-coenzyme A reductase (Homo sapiens, UniProt P04035); parameters: species or system Escherichia coli
T4 sequence (P04035 whole entry): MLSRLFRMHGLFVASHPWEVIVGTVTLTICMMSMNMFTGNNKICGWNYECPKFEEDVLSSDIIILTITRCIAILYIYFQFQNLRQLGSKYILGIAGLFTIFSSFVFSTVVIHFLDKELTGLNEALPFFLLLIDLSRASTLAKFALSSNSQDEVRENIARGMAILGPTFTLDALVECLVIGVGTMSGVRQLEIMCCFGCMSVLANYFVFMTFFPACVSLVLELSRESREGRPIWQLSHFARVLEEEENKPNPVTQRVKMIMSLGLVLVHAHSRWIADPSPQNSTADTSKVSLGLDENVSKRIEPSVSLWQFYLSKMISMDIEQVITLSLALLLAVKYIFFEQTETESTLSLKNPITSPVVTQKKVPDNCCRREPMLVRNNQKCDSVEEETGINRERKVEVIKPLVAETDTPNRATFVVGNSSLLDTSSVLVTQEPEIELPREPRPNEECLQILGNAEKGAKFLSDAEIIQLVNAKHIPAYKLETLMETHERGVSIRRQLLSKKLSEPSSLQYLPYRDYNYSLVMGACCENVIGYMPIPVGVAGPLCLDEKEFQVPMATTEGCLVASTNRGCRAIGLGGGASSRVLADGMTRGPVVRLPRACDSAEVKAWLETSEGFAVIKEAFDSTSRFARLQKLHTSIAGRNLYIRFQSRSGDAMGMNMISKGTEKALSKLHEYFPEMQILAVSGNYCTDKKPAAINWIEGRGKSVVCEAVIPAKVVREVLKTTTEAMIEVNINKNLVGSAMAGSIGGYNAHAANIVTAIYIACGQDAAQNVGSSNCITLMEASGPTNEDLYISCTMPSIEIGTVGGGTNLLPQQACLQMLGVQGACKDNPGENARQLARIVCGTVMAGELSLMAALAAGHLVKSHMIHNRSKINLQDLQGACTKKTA

Delta-type opioid receptor, sequence (P41143 whole entry): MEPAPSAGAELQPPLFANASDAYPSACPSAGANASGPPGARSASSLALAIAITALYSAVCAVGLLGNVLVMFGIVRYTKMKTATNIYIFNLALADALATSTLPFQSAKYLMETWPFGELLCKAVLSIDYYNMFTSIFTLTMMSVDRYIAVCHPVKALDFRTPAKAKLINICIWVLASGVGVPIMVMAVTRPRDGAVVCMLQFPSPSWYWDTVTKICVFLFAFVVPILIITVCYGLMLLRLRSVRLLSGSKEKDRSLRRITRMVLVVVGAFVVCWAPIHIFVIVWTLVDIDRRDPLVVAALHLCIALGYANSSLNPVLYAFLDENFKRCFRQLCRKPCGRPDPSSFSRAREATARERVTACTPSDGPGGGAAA
Cannabinoid receptor 1, sequence (P21554 whole entry): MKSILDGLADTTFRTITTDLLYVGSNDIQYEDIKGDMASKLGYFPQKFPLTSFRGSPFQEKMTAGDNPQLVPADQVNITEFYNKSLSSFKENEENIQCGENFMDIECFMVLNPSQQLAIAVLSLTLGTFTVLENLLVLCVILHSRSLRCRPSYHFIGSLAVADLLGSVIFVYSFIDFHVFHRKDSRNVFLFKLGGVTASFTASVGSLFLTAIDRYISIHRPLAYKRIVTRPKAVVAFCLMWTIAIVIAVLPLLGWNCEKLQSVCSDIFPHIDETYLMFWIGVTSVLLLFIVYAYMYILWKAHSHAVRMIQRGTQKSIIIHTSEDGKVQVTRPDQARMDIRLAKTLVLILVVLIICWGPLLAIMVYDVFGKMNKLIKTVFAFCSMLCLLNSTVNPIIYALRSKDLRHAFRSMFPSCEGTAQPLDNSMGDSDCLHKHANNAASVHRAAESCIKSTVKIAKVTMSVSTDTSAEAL
Mitogen-activated protein kinase 1, sequence (P28482 whole entry): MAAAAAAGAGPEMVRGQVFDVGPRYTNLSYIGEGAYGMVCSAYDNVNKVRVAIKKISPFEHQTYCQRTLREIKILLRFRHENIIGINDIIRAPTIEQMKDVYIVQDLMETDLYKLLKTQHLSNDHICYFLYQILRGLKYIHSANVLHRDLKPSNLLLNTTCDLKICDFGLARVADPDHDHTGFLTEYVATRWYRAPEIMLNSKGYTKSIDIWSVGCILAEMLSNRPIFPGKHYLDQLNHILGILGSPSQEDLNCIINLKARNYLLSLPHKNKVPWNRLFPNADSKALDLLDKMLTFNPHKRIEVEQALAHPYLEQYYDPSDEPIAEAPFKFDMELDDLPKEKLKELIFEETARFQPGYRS

CC(C)CN(C[C@@H](O)[C@H](Cc1ccccc1)NC(=O)O[C@H]1CCOC1)S(=O)(=O)c1ccc(N)cc1
Not Active: IC50 [1] | IC50 [2] | Ki [2] | IC50 [3] | Ki [3] | IC50 [4] | IC50 [5] | IC50 [6] | IC50 [7] | IC50 [8] | IC50 [9]

c1ccc(Nc2ccc(Nc3ccccc3)cc2)cc1
Not Active: IC50 [1] | IC50 [2] | Ki [2] | IC50 [3] | Ki [3] | IC50 [4] | IC50 [5] | IC50 [6] | IC50 [7] | IC50 [8] | IC50 [9]

NC(=O)N1c2ccccc2CCc2ccccc21
Not Active: IC50 [1] | IC50 [2] | Ki [2] | IC50 [3] | Ki [3] | IC50 [4] | IC50 [5] | IC50 [6] | IC50 [7] | IC50 [8] | IC50 [9]

Cc1onc(O)c1CC(N)C(=O)O (racemic) [(R,S)-AMPA]
Not Active: IC50 [1] | IC50 [2] | Ki [2] | IC50 [3] | Ki [3] | IC50 [4] | IC50 [5] | IC50 [6] | IC50 [7] | IC50 [8] | IC50 [9]

Cc1ccc2cc3c(ccc4ccccc43)c3c2c1CC3 [3-METHYLCHOLANTHRENE]
Not Active: IC50 [1] | IC50 [2] | Ki [2] | IC50 [4] | IC50 [5] | IC50 [6] | IC50 [7] | IC50 [8] | IC50 [9]

Nc1c(Br)cc(Br)cc1CN[C@H]1CC[C@H](O)CC1 [AMBROXOL]
Not Active: IC50 [1] | IC50 [2] | Ki [2] | IC50 [4] | IC50 [5] | IC50 [6] | IC50 [7] | IC50 [8] | IC50 [9]

c1ccc2c(c1)c1cccc3ccc4cccc2c4c31 [BENZO[E]PYRENE]
Not Active: IC50 [1] | IC50 [2] | Ki [2] | IC50 [4] | IC50 [5] | IC50 [6] | IC50 [7] | IC50 [8] | IC50 [9]

Cc1ccc(-c2cc(C(F)(F)F)nn2-c2ccc(S(N)(=O)=O)cc2)cc1 [CELECOXIB]
Not Active: IC50 [1] | IC50 [2] | Ki [2] | IC50 [3] | Ki [3] | IC50 [4] | IC50 [5] | IC50 [6] | IC50 [8] | IC50 [9]

N=C(N)NCCN1CCCCCCC1 [GUANETHIDINE]
Not Active: IC50 [1] | IC50 [2] | Ki [2] | IC50 [4] | IC50 [5] | IC50 [6] | IC50 [7] | IC50 [8] | IC50 [9]

Nc1nc(N)nc(-c2cc(Cl)ccc2Cl)n1.O=C(O)/C=C\C(=O)O [IRSOGLADINE MALEATE]
Not Active: IC50 [1] | IC50 [2] | Ki [2] | IC50 [3] | Ki [3] | IC50 [4] | IC50 [5] | IC50 [6] | IC50 [7] | IC50 [9]

CCCCc1nc(Cl)c(CO)n1Cc1ccc(-c2ccccc2-c2nnn[nH]2)cc1 [LOSARTAN]
Not Active: IC50 [1] | IC50 [2] | Ki [2] | IC50 [3] | Ki [3] | IC50 [4] | IC50 [5] | IC50 [6] | IC50 [7] | IC50 [9]

C[C@](N)(Cc1ccc(O)c(O)c1)C(=O)O [METHYLDOPA]
Not Active: IC50 [1] | IC50 [2] | Ki [2] | IC50 [3] | Ki [3] | IC50 [4] | IC50 [5] | IC50 [6] | IC50 [7] | IC50 [9]

Cc1ccccc1N1C(=O)c2cc(S(N)(=O)=O)c(Cl)cc2NC1C (centres undefined) [METOLAZONE]
Not Active: IC50 [1] | IC50 [2] | Ki [2] | IC50 [3] | Ki [3] | IC50 [4] | IC50 [5] | IC50 [6] | IC50 [7] | IC50 [9]

COCCc1ccc(OCC(O)CNC(C)C)cc1 (centres undefined) [METOPROLOL]
Not Active: IC50 [1] | IC50 [2] | Ki [2] | IC50 [3] | Ki [3] | IC50 [4] | IC50 [5] | IC50 [6] | IC50 [7] | IC50 [9]

NC1=NC(=O)C(c2ccccc2)O1 (centres undefined) [PEMOLINE]
Not Active: IC50 [1] | IC50 [2] | Ki [2] | IC50 [3] | Ki [3] | IC50 [4] | IC50 [5] | IC50 [6] | IC50 [7] | IC50 [9]

CC1(C)S[C@@H]2[C@H](NC(=O)Cc3ccccc3)C(=O)N2[C@H]1C(=O)O [PENICILLIN G]
Not Active: IC50 [1] | IC50 [2] | Ki [2] | IC50 [4] | IC50 [5] | IC50 [6] | IC50 [7] | IC50 [8] | IC50 [9]

CNNCc1ccc(C(=O)NC(C)C)cc1 [PROCARBAZINE]
Not Active: IC50 [1] | IC50 [2] | Ki [2] | IC50 [3] | Ki [3] | IC50 [4] | IC50 [5] | IC50 [6] | IC50 [7] | IC50 [9]
